Patent publication US11717549B2, “Steviol glycoside solubility enhancers” (CARGILL, INCORPORATED, priority 2017, dated 2023)

Assay: Observation for solubility / precipitation of acid and steviol glycoside samples in water (Example I)
Conditions: 0.3% steviol glycoside; 5:1 and 2:1 molar ratio of pamoic acid to steviol glycoside; pH not adjusted

pamoic acid
solubility of sample (conclusion): not initially soluble and remained insoluble at least after 1 day
